# “Also recorded” adds a separate entry of the source.
# Key:
# Type in all cases: cell-based
# [1] = system: SERPINE1 gene expression in fibroblasts; test: SERPINE1 gene expression in fibroblasts; conditions: older cells (passage 20), FIG. 2
# Source text: (§1) FIG. 2 illustrates the increased expression of EFNB1, NFE2L2, SERPINE1 and SIRT1 genes in fibroblasts that occurs by administration of taltirelin.
# [2] = system: EFNB1 gene expression in fibroblasts; test: EFNB1 gene expression in fibroblasts; conditions: older cells (passage 20), FIG. 2
# Source text: as §1
# [3] = system: FOXO3 gene expression in fibroblasts; test: FOXO3 gene expression in fibroblasts; conditions: older cells (passage 20), P<0.01, FIG. 1
# Source text: (§2) Experiments have shown that taltirelin modulates the gene expression in fibroblasts of a variety of genes involved in processes underlying ageing.
# (§3) FIG. 1 illustrates the increased expression of FOXO1 and FOXO3 genes that occurs in fibroblasts by administration of taltirelin. From the results, it can be seen that the administration of taltirelin in older cells (passage 20) led to a large increase in the expression of FOXO1 (>5×) and FOXO3 (>1.5×) compared to untreated controls. The results were statistically significant with P<0.01.
# [4] = system: NFE2L2 gene expression in fibroblasts; test: NFE2L2 gene expression in fibroblasts; conditions: older cells (passage 20), FIG. 2
# Source text: as §1
# [5] = system: FOXO1 gene expression in fibroblasts; test: FOXO1 gene expression in fibroblasts; conditions: older cells (passage 20), P<0.01, FIG. 1
# Source text: as §2, §3
# [6] = system: SIRT1 gene expression in fibroblasts; test: SIRT1 gene expression in fibroblasts; conditions: older cells (passage 20), FIG. 2
# Source text: as §1
smiles,measurement,setting,value
"CN1C(=O)C[C@@H](C(=O)N[C@@H](Cc2cnc[nH]2)C(=O)N2CCC[C@H]2C(N)=O)NC1=O [taltirelin, N-[[(4S)-Hexahydro-1-methyl-2,6-dioxo-4-pyrimidinyl]carbonyl]-L-histidyl-L-prolinamide]",expression of SERPINE1 gene compared to untreated controls,[1],statistically significant (P<0.01) decrease; also recorded: significantly inhibited
same,expression of EFNB1 gene compared to untreated controls,[2],statistically significant (P<0.01) increase; also recorded: significantly increased
same,increase in the expression of FOXO3 compared to untreated controls,[3],> 1.5 ×
same,expression of NFE2L2 gene compared to untreated controls,[4],statistically significant (P<0.01) increase; also recorded: significantly increased
same,increase in the expression of FOXO1 compared to untreated controls,[5],> 5 ×
same,expression of SIRT1 gene compared to untreated controls,[6],statistically significant (P<0.01) increase; also recorded: increased significantly

# — US20220226319A1, “TALTIRELIN USE” (EOLAS RESEARCH LIMITED, priority 2019, published 2022)
